From patent US20250163104A1, “MACROCYCLIC IMMUNOMODULATORS” (priority 2021, published 2025)
Where a SMILES comes first, the peptide text is derived from it. Bridges are numbered along the chain shown (N, C = ends). [ ]: non-standard residue; d: D form. ξ: configuration not given here. Phe(4-COOH) = N[C@@H](Cc1ccc(C(=O)O)cc1)C(=O)O; Bip = N[C@@H](Cc1ccc(-c2ccccc2)cc1)C(=O)O; Phe(3-Me) = Cc1cccc(C[C@H](N)C(=O)O)c1; 4Pal = N[C@@H](Cc1ccncc1)C(=O)O; Cha = N[C@@H](CC1CCCCC1)C(=O)O; Ile(3ξ) = CCC(C)[C@H](N)C(=O)O; Thr(3ξ) = CC(O)[C@H](N)C(=O)O; Tle = CC(C)(C)[C@H](N)C(=O)O; Orn = NCCC[C@H](N)C(=O)O; Dab = NCC[C@H](N)C(=O)O

The molecules below were run against T1, human PD-1 / PD-L1-Ig binding on Jurkat cell line over-expressing human PD-1 (Jurkat-PD-1) (Homo sapiens, UniProt Q15116) (assay: Jurkat-PD-1 Cell Binding High-Content Screening Assay (CBA)). Conditions: Jurkat-PD-1 cells, PE-labeled PD-L1-Ig 20 nM final; read-out: Jurkat HPD1_PDL1 IC50.
T1 construct: expressed in transfected cells; host or cells: Jurkat
T1 sequence (Q15116 25-288): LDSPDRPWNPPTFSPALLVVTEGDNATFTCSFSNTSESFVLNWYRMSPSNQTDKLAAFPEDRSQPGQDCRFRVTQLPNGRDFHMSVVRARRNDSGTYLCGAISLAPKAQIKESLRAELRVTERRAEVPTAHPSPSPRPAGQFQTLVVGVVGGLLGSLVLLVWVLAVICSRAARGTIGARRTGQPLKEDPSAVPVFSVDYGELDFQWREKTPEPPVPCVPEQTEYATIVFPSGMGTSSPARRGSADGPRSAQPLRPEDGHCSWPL
Assay type: cell-based
Procedure, shortened: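 PE-PD-L1-Ig 20 nM final; cells in DMEM/10% FCS; cpd pre-incubation 2 h, 37° C; ligand 1 h; PFA fix + Hoechst 33342; high-content imaging read-out.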

Row | IC50 [nM] | Compound
1 | 26.6 | CCC(C)[C@@H]1NC(=O)[C@H](Cc2ccc(-c3ccccc3)cc2)NC(=O)[C@H](C(C)C)NC(=O)[C@H](Cc2cccc(C)c2)NC(=O)[C@H](CC(=O)O)NC(=O)[C@H](Cc2ccc(C(=O)O)cc2)NC(=O)[C@H](Cc2ccncc2)NC(=O)CSC[C@@H](C(N)=O)NC(=O)[C@H](CCCN)NC(=O)[C@H](C(C)C)NC(=O)[C@H](CC2CCCCC2)NC(=O)[C@H](CCN)NC(=O)[C@@H](CC(C)C)NC(=O)[C@H](CCCN)NC1=O (stereo partly drawn) [Compound 2273] ({CH2CO}-[4Pal][Phe(4-COOH)]D[Phe(3-Me)]V[Bip][Ile(3ξ)][Orn][dL][Dab][Cha]V[Orn]C-NH2; thioether N-14)
2 | 36.3 | CCC(C)[C@@H]1NC(=O)[C@H](Cc2ccc(-c3ccccc3)cc2)NC(=O)[C@H](C(C)C)NC(=O)[C@H](Cc2cccc(C)c2)NC(=O)[C@H](CC(=O)O)NC(=O)[C@H](Cc2ccc(C(=O)O)cc2)NC(=O)[C@H](Cc2ccncc2)NC(=O)CSC[C@@H](C(N)=O)NC(=O)[C@H]([C@@H](C)O)NC(=O)[C@H](C(C)(C)C)NC(=O)[C@H](CC2CCCCC2)NC(=O)[C@H](CCN)NC(=O)[C@@H](CC(C)C)NC(=O)[C@H](CCCN)NC1=O (stereo partly drawn) [Compound 2274] ({CH2CO}-[4Pal][Phe(4-COOH)]D[Phe(3-Me)]V[Bip][Ile(3ξ)][Orn][dL][Dab][Cha][Tle]TC-NH2; thioether N-14)
3 | 33.5 | CCC(C)[C@@H]1NC(=O)[C@H](Cc2ccc(-c3ccccc3)cc2)NC(=O)[C@H](C(C)C)NC(=O)[C@H](Cc2cccc(C)c2)NC(=O)[C@H](CC(=O)O)NC(=O)[C@H](Cc2ccc(C(=O)O)cc2)NC(=O)[C@H](Cc2ccncc2)NC(=O)CSC[C@@H](C(N)=O)NC(=O)[C@H]([C@@H](C)O)NC(=O)[C@H](C(C)C)NC(=O)[C@H](CC2CCCCC2)NC(=O)[C@H](CCN)NC(=O)[C@@H](CC(C)C)NC(=O)[C@H](CCCN)NC1=O (stereo partly drawn) [Compound 2275] ({CH2CO}-[4Pal][Phe(4-COOH)]D[Phe(3-Me)]V[Bip][Ile(3ξ)][Orn][dL][Dab][Cha]VTC-NH2; thioether N-14)
4 | 26.6 | CCC(C)[C@@H]1NC(=O)[C@H](Cc2ccc(-c3ccccc3)cc2)NC(=O)[C@H](C(C)C)NC(=O)[C@H](Cc2cccc(C)c2)NC(=O)[C@H](CC(=O)O)NC(=O)[C@H](Cc2ccc(C(=O)O)cc2)NC(=O)[C@H](Cc2ccncc2)NC(=O)CSC[C@@H](C(N)=O)NC(=O)[C@H](CO)NC(=O)[C@H](C(C)C)NC(=O)[C@H](CC2CCCCC2)NC(=O)[C@H](CCN)NC(=O)[C@@H](CC(C)C)NC(=O)[C@H](CCCN)NC1=O (stereo partly drawn) [Compound 2276] ({CH2CO}-[4Pal][Phe(4-COOH)]D[Phe(3-Me)]V[Bip][Ile(3ξ)][Orn][dL][Dab][Cha]VSC-NH2; thioether N-14)
5 | 32.6 | CCC(C)[C@@H]1NC(=O)[C@H](Cc2ccc(-c3ccccc3)cc2)NC(=O)[C@H](C(C)C)NC(=O)[C@H](Cc2cccc(C)c2)NC(=O)[C@H](CC(=O)O)NC(=O)[C@H](Cc2ccc(C(=O)O)cc2)NC(=O)[C@H](Cc2ccncc2)NC(=O)CSC[C@@H](C(N)=O)NC(=O)[C@H](CCC(=O)O)NC(=O)[C@H](C(C)C)NC(=O)[C@H](CC2CCCCC2)NC(=O)[C@H](CCN)NC(=O)[C@@H](CC(C)C)NC(=O)[C@H](CCCN)NC1=O (stereo partly drawn) [Compound 2277] ({CH2CO}-[4Pal][Phe(4-COOH)]D[Phe(3-Me)]V[Bip][Ile(3ξ)][Orn][dL][Dab][Cha]VEC-NH2; thioether N-14)
6 | 37.6 | CCC(C)[C@@H]1NC(=O)[C@H](Cc2ccc(-c3ccccc3)cc2)NC(=O)[C@H](C(C)C)NC(=O)[C@H](Cc2cccc(C)c2)NC(=O)[C@H](CC(=O)O)NC(=O)[C@H](Cc2ccc(C(=O)O)cc2)NC(=O)[C@H](Cc2ccncc2)NC(=O)CSC[C@@H](C(N)=O)NC(=O)[C@H](CC(=O)O)NC(=O)[C@H](C(C)C)NC(=O)[C@H](CC2CCCCC2)NC(=O)[C@H](CCN)NC(=O)[C@@H](CC(C)C)NC(=O)[C@H](CCCN)NC1=O (stereo partly drawn) [Compound 2278] ({CH2CO}-[4Pal][Phe(4-COOH)]D[Phe(3-Me)]V[Bip][Ile(3ξ)][Orn][dL][Dab][Cha]VDC-NH2; thioether N-14)
7 | 15.6 | CCC(C)[C@@H]1NC(=O)[C@H](Cc2ccc(-c3ccccc3)cc2)NC(=O)[C@H](C(C)C)NC(=O)[C@H](Cc2cccc(C)c2)NC(=O)[C@H](CC(=O)O)NC(=O)[C@H](Cc2ccc(C(=O)O)cc2)NC(=O)[C@H](Cc2ccncc2)NC(=O)CSC[C@@H](C(N)=O)NC(=O)[C@H](CC(N)=O)NC(=O)[C@H](C(C)C)NC(=O)[C@H](CC2CCCCC2)NC(=O)[C@H](CCN)NC(=O)[C@@H](CC(C)C)NC(=O)[C@H](CCCN)NC1=O (stereo partly drawn) [Compound 2279] ({CH2CO}-[4Pal][Phe(4-COOH)]D[Phe(3-Me)]V[Bip][Ile(3ξ)][Orn][dL][Dab][Cha]VNC-NH2; thioether N-14)
8 | 40.9 | CCC(C)[C@@H]1NC(=O)[C@H](Cc2ccc(-c3ccccc3)cc2)NC(=O)[C@H](C(C)C)NC(=O)[C@H](Cc2cccc(C)c2)NC(=O)[C@H](CC(=O)O)NC(=O)[C@H](Cc2ccc(C(=O)O)cc2)NC(=O)[C@H](Cc2ccncc2)NC(=O)CSC[C@@H](C(N)=O)NC(=O)[C@H](CCC(N)=O)NC(=O)[C@H](C(C)C)NC(=O)[C@H](CC2CCCCC2)NC(=O)[C@H](CCN)NC(=O)[C@@H](CC(C)C)NC(=O)[C@H](CCCN)NC1=O (stereo partly drawn) [Compound 2280] ({CH2CO}-[4Pal][Phe(4-COOH)]D[Phe(3-Me)]V[Bip][Ile(3ξ)][Orn][dL][Dab][Cha]VQC-NH2; thioether N-14)
9 | 4.1 | Cc1cccc(C[C@@H]2NC(=O)[C@H](CC(=O)O)NC(=O)[C@H](Cc3ccc(C(=O)O)cc3)NC(=O)[C@H](Cc3ccncc3)NC(=O)CSC[C@@H](C(=O)N[C@@H](CC(N)=O)C(N)=O)NC(=O)[C@H](CO)NC(=O)[C@H](C(C)C)NC(=O)[C@H](CC3CCCCC3)NC(=O)[C@H](CCN)NC(=O)[C@@H](CC(C)C)NC(=O)[C@H](CCCN)NC(=O)[C@H](Cc3ccc(O)cc3)NC(=O)[C@H](Cc3ccc(-c4ccccc4)cc3)NC(=O)[C@H](Cc3ccc(O)cc3)NC2=O)c1 [Compound 2284] ({CH2CO}-[4Pal][Phe(4-COOH)]D[Phe(3-Me)]Y[Bip]Y[Orn][dL][Dab][Cha]VSCN-NH2; thioether N-14)
10 | 8.9 | Cc1cccc(C[C@@H]2NC(=O)[C@H](CC(=O)O)NC(=O)[C@H](Cc3ccc(C(=O)O)cc3)NC(=O)[C@H](Cc3ccncc3)NC(=O)CSC[C@@H](C(=O)N[C@H](CC(N)=O)C(N)=O)NC(=O)[C@H](CO)NC(=O)[C@H](C(C)C)NC(=O)[C@H](CC3CCCCC3)NC(=O)[C@H](CCN)NC(=O)[C@@H](CC(C)C)NC(=O)[C@H](CCCN)NC(=O)[C@H](Cc3ccc(O)cc3)NC(=O)[C@H](Cc3ccc(-c4ccccc4)cc3)NC(=O)[C@H](Cc3ccc(O)cc3)NC2=O)c1 [Compound 2286] ({CH2CO}-[4Pal][Phe(4-COOH)]D[Phe(3-Me)]Y[Bip]Y[Orn][dL][Dab][Cha]VSC[dN]-NH2; thioether N-14)
11 | 14.6 | Cc1cccc(C[C@@H]2NC(=O)[C@H](CC(=O)O)NC(=O)[C@H](Cc3ccc(C(=O)O)cc3)NC(=O)[C@H](Cc3ccncc3)NC(=O)CSC[C@@H](C(=O)N[C@@H](CC(N)=O)C(N)=O)NC(=O)[C@H](C(C)O)NC(=O)[C@H](C(C)C)NC(=O)[C@H](CC3CCCCC3)NC(=O)[C@H](CCN)NC(=O)[C@@H](CC(C)C)NC(=O)[C@H](CCCN)NC(=O)[C@H](Cc3ccc(O)cc3)NC(=O)[C@H](Cc3ccc(-c4ccccc4)cc3)NC(=O)[C@H](C(C)C)NC2=O)c1 (stereo partly drawn) [Compound 2288] ({CH2CO}-[4Pal][Phe(4-COOH)]D[Phe(3-Me)]V[Bip]Y[Orn][dL][Dab][Cha]V[Thr(3ξ)]CN-NH2; thioether N-14)
12 | 16.4 | Cc1cccc(C[C@@H]2NC(=O)[C@H](CC(=O)O)NC(=O)[C@H](Cc3ccc(C(=O)O)cc3)NC(=O)[C@H](Cc3ccncc3)NC(=O)CSC[C@@H](C(=O)N[C@@H](CC(N)=O)C(N)=O)NC(=O)[C@H](CO)NC(=O)[C@H](C(C)C)NC(=O)[C@H](CC3CCCCC3)NC(=O)[C@H](CCN)NC(=O)[C@@H](CC(C)C)NC(=O)[C@H](CCCN)NC(=O)[C@H](Cc3ccc(O)cc3)NC(=O)[C@H](Cc3ccc(-c4ccccc4)cc3)NC(=O)[C@H](C(C)C)NC2=O)c1 [Compound 2289] ({CH2CO}-[4Pal][Phe(4-COOH)]D[Phe(3-Me)]V[Bip]Y[Orn][dL][Dab][Cha]VSCN-NH2; thioether N-14)
13 | 13.5 | Cc1cccc(C[C@@H]2NC(=O)[C@H](CC(=O)O)NC(=O)[C@H](Cc3ccc(C(=O)O)cc3)NC(=O)[C@H](Cc3ccncc3)NC(=O)CSC[C@@H](C(=O)N[C@H](CC(N)=O)C(N)=O)NC(=O)[C@H]([C@@H](C)O)NC(=O)[C@H](C(C)C)NC(=O)[C@H](CC3CCCCC3)NC(=O)[C@H](CCN)NC(=O)[C@@H](CC(C)C)NC(=O)[C@H](CCCN)NC(=O)[C@H](Cc3ccc(O)cc3)NC(=O)[C@H](Cc3ccc(-c4ccccc4)cc3)NC(=O)[C@H](C(C)C)NC2=O)c1 [Compound 2290] ({CH2CO}-[4Pal][Phe(4-COOH)]D[Phe(3-Me)]V[Bip]Y[Orn][dL][Dab][Cha]VTC[dN]-NH2; thioether N-14)
14 | 10.6 | Cc1cccc(C[C@@H]2NC(=O)[C@H](CC(=O)O)NC(=O)[C@H](Cc3ccc(C(=O)O)cc3)NC(=O)[C@H](Cc3ccncc3)NC(=O)CSC[C@@H](C(=O)N[C@H](CC(N)=O)C(N)=O)NC(=O)[C@H](CO)NC(=O)[C@H](C(C)C)NC(=O)[C@H](CC3CCCCC3)NC(=O)[C@H](CCN)NC(=O)[C@@H](CC(C)C)NC(=O)[C@H](CCCN)NC(=O)[C@H](Cc3ccc(O)cc3)NC(=O)[C@H](Cc3ccc(-c4ccccc4)cc3)NC(=O)[C@H](C(C)C)NC2=O)c1 [Compound 2291] ({CH2CO}-[4Pal][Phe(4-COOH)]D[Phe(3-Me)]V[Bip]Y[Orn][dL][Dab][Cha]VSC[dN]-NH2; thioether N-14)
